Key:
[1] = in vivo
[2] = in vivo; cited from earlier work

SMILES	Class(High: HIA value ≥0.7; Low: HIA value < 0.7) [1]	HIA(Human Intestinal Absorption) [2]
COc1cc2c(cc1OC)CN(C(=O)[C@H](C)N[C@@H](CCc1ccccc1)C(=O)O)[C@H](C(=O)O)C2 [Moexipril_diacid]	Low (key: High: HIA value ≥0.7; Low: HIA value < 0.7)	0.05
CN1[C@@H](CSCC(F)(F)F)Nc2cc(Cl)c(S(N)(=O)=O)cc2S1(=O)=O [Polythiazide(S)]	High (key: High: HIA value ≥0.7; Low: HIA value < 0.7)	1
CC[C@]1(c2cccc(O)c2)CCCCN(C)C1 [Meptazinol(R)]	High (key: High: HIA value ≥0.7; Low: HIA value < 0.7)	1
CCCNC1CCc2nc(N)sc2C1 (stereo in doubt) [Pramipexole(R)]	High (key: High: HIA value ≥0.7; Low: HIA value < 0.7)	0.8
COc1ccc(CCN(C)CCC[C@@](C#N)(c2cc(OC)c(OC)c(OC)c2)C(C)C)cc1OC [Gallopamil(S)]	High (key: High: HIA value ≥0.7; Low: HIA value < 0.7)	0.97
C[C@@H](c1cc2ccccc2s1)N(O)C(N)=O [Zileuton(S)]	High (key: High: HIA value ≥0.7; Low: HIA value < 0.7)	1
CCN(CCCCOC(=O)c1ccc(OC)c(OC)c1)[C@H](C)Cc1ccc(OC)cc1 [Mebeverine(R)]	High (key: High: HIA value ≥0.7; Low: HIA value < 0.7)	0.9
COc1ccc(CCN(C)CCC[C@](C#N)(c2cc(OC)c(OC)c(OC)c2)C(C)C)cc1OC [Gallopamil(R)]	High (key: High: HIA value ≥0.7; Low: HIA value < 0.7)	0.97
CC[C@@H](CO)NC(=O)[C@@H]1C=C2c3cccc4c3c(cn4C)C[C@H]2N(C)C1 [Methysergide]	High (key: High: HIA value ≥0.7; Low: HIA value < 0.7)	1
NC[C@@H]1O[C@H](O[C@H]2[C@@H](O)[C@H](O[C@@H]3[C@@H](O)[C@H](N)C[C@H](N)[C@H]3O[C@H]3O[C@H](CN)[C@@H](O)[C@H](O)[C@H]3N)O[C@@H]2CO)[C@H](N)[C@@H](O)[C@@H]1O [Neomycin]	Low (key: High: HIA value ≥0.7; Low: HIA value < 0.7)	0.03
CC(C)NC[C@@H](O)COc1cccc2[nH]ccc12 [Pindolol(R)]	High (key: High: HIA value ≥0.7; Low: HIA value < 0.7)	0.9
CCN[C@@H](C)Cc1cccc(C(F)(F)F)c1 [Fenfluramine(S)]	High (key: High: HIA value ≥0.7; Low: HIA value < 0.7)	0.95
C[C@@H](O)Cn1cnc2c1c(=O)n(C)c(=O)n2C [Proxyphylline(R)]	High (key: High: HIA value ≥0.7; Low: HIA value < 0.7)	1
CC(C)(C)c1ccc([C@H](O)CCCN2CCC(C(O)(c3ccccc3)c3ccccc3)CC2)cc1 [Terfenadine(R)]	High (key: High: HIA value ≥0.7; Low: HIA value < 0.7)	1
CN1CCCC1c1cccnc1 (stereo in doubt) [Nicotine(R)]	High (key: High: HIA value ≥0.7; Low: HIA value < 0.7)	1
CC(C)C[C@@H](N(C)C)C1(c2ccc(Cl)cc2)CCC1 [Sibutramine(R)]	High (key: High: HIA value ≥0.7; Low: HIA value < 0.7)	0.77
CCCC(CCC)CCC[C@@H]1COCCN1CCO [Delmopinol(R)]	High (key: High: HIA value ≥0.7; Low: HIA value < 0.7)	0.95
CN1C(=O)[C@H](O)N=C(c2ccccc2Cl)c2cc(Cl)ccc21 [Lormetazepam(S)]	High (key: High: HIA value ≥0.7; Low: HIA value < 0.7)	1
CN1CCN(C(=O)O[C@H]2c3nccnc3C(=O)N2c2ccc(Cl)cn2)CC1 [Zopiclone(S)]	High (key: High: HIA value ≥0.7; Low: HIA value < 0.7)	0.98
COC(=O)C1=C(C)NC(C)=C(C(=O)OCCN(C)Cc2ccccc2)[C@@H]1c1cccc([N+](=O)[O-])c1 [Nicardipine(R)]	High (key: High: HIA value ≥0.7; Low: HIA value < 0.7)	0.95
O/N=C/c1cc[n+](COC[n+]2ccc(/C=N/O)cc2)cc1 [Obidoxime]	Low (key: High: HIA value ≥0.7; Low: HIA value < 0.7)	0.05
CC(C)(C)NC[C@@H](O)COc1cccc2c1CCC(=O)N2 [Carteolol(R)]	High (key: High: HIA value ≥0.7; Low: HIA value < 0.7)	0.95
C#CCN(C)[C@H](C)Cc1ccccc1 [Selegiline(R)]	High (key: High: HIA value ≥0.7; Low: HIA value < 0.7)	1

SMILES	Class(High: HIA value ≥0.7; Low: HIA value < 0.7) [1]	HIA(Human Intestinal Absorption) [2]
N[C@@H](CO)C(=O)NNCc1ccc(O)c(O)c1O [Benserazide(S)]	High (key: High: HIA value ≥0.7; Low: HIA value < 0.7)	0.7
COc1ccccc1OC[C@@H](O)COC(N)=O [Methocarbamol(R)]	High (key: High: HIA value ≥0.7; Low: HIA value < 0.7)	1
COc1cc2nc(N3CCN(C(=O)[C@H]4COc5ccccc5O4)CC3)nc(N)c2cc1OC [Doxazosin(R)]	High (key: High: HIA value ≥0.7; Low: HIA value < 0.7)	1
C=CCc1ccccc1OC[C@@H](O)CNC(C)C [Alprenolol(S)]	High (key: High: HIA value ≥0.7; Low: HIA value < 0.7)	0.93
OCCN1CCN(CC/C=C2/c3ccccc3Sc3ccc(C(F)(F)F)cc32)CC1 [Flupentixol]	High (key: High: HIA value ≥0.7; Low: HIA value < 0.7)	1
Cc1ccc(-c2nc3ccc(C)cn3c2CC(=O)N(C)C)cc1 [Zolpidem]	High (key: High: HIA value ≥0.7; Low: HIA value < 0.7)	0.95
COc1ccccc1OCCNC[C@@H](O)c1ccc(C)c(S(N)(=O)=O)c1 [Amosulalol(S)]	High (key: High: HIA value ≥0.7; Low: HIA value < 0.7)	1
CC(C)C[C@H](N(C)C)C1(c2ccc(Cl)cc2)CCC1 [Sibutramine(S)]	High (key: High: HIA value ≥0.7; Low: HIA value < 0.7)	0.77
CN(C)C(=O)O[C@@H]1N=C(c2ccccc2)c2cc(Cl)ccc2N(C)C1=O [Camazepam(S)]	High (key: High: HIA value ≥0.7; Low: HIA value < 0.7)	1
CC(C)(Oc1ccc([C@@H]2CC2(Cl)Cl)cc1)C(=O)O [Ciprofibrate(S)]	High (key: High: HIA value ≥0.7; Low: HIA value < 0.7)	0.99
CCCC(=O)Nc1ccc(OC[C@@H](O)CNC(C)C)c(C(C)=O)c1 [Acebutolol(S)]	High (key: High: HIA value ≥0.7; Low: HIA value < 0.7)	0.85
CCC(C)n1ncn(-c2ccc(N3CCN(c4ccc(OCC5COC(Cn6cncn6)(c6ccc(Cl)cc6Cl)O5)cc4)CC3)cc2)c1=O [Itraconazole(R)]	High (key: High: HIA value ≥0.7; Low: HIA value < 0.7)	0.8
O=C1Nc2ccc(Cl)cc2C(c2ccccc2Cl)=N[C@H]1O [Lorazepam(S)]	High (key: High: HIA value ≥0.7; Low: HIA value < 0.7)	0.95
C#CCN(C)C(C)Cc1ccccc1 (stereo in doubt) [Selegiline(S)]	High (key: High: HIA value ≥0.7; Low: HIA value < 0.7)	1
C[C@H](CN(C)C)CN1c2ccccc2CCc2ccccc21 [Trimipramine(R)]	High (key: High: HIA value ≥0.7; Low: HIA value < 0.7)	0.8
COC(=O)C(c1ccccc1)C1CCCCN1 (centres unmarked) [Methylphenidate]	High (key: High: HIA value ≥0.7; Low: HIA value < 0.7)	0.8
CN(Cc1cnc2nc(N)nc(N)c2n1)c1ccc(C(=O)NC(CCC(=O)O)C(=O)O)cc1 (stereo in doubt) [Methotrexate(R)]	High (key: High: HIA value ≥0.7; Low: HIA value < 0.7)	1
CC(C)(C)NC[C@@H](O)c1ccc(O)c(CO)n1 [Pirbuterol(R)]	Low (key: High: HIA value ≥0.7; Low: HIA value < 0.7)	0.6
O=C1CN=C(c2ccccc2)c2cc([N+](=O)[O-])ccc2N1 [Nitrazepam]	High (key: High: HIA value ≥0.7; Low: HIA value < 0.7)	0.95
NS(=O)(=O)c1cc([C@]2(O)NC(=O)c3ccccc32)ccc1Cl [Chlorthalidone(R)]	Low (key: High: HIA value ≥0.7; Low: HIA value < 0.7)	0.65
CO/N=C(\C(=O)N[C@@H]1C(=O)N2C(C(=O)OC(C)OC(C)=O)=C(COC(N)=O)CS[C@H]12)c1ccco1 (stereo partly drawn) [Cefuroximeaxetil(R)]	Low (key: High: HIA value ≥0.7; Low: HIA value < 0.7)	0.36
CC(=O)Nc1ccc(OC[C@@H](O)CNC(C)C)cc1 [Practolol(S)]	High (key: High: HIA value ≥0.7; Low: HIA value < 0.7)	0.95
COCCc1ccc(OC[C@H](O)CNC(C)C)cc1 [Metoprolol(R)]	High (key: High: HIA value ≥0.7; Low: HIA value < 0.7)	0.96
